From BindingDB's records for PubMed 22948716 (Children's Hospital of Philadelphia) come the findings set out here.

Assay [1] is described as follows: Inhibition of CENP-E in human SK-N-FI cells assessed as decrease in cell viability after 72 hrs by Cell-titer Glo reagent assay.
The nature of assay [2]: Inhibition of CENP-E in human SK-N-FI cells assessed as decrease in cell viability after 72 hrs in presence of ERK1 siRNA by Cell-titer Glo reagent assay.
Assay [3] in a line: Inhibition of CENP-E in human HCT-116 cells expressing KRAS mutant assessed as decrease in cell viability after 72 hrs by Cell-titer Glo reagent assay.
Assay [4] can be described thus: Inhibition of CENP-E in human SW620 cells expressing KRAS mutant assessed as decrease in cell viability after 72 hrs by Cell-titer Glo reagent assay.
Assay [5] in a line: Inhibition of CENP-E in human RKO cells expressing BRAF mutant assessed as decrease in cell viability after 72 hrs by Cell-titer Glo reagent assay.

Broadly, the IC50 is the point on the concentration scale where inhibition reaches its midpoint.

Regarding `CC(C)Oc1ccc(C(=O)N[C@H](CNC(=O)CN(C)C)Cc2ccc(-c3cn4cccc([C@H](C)O)c4n3)cc2)cc1Cl` [Gsk-923295a], the IC50 in assay [1] came out at 283 nM; in assay [2], 134 nM; in assay [3], 52 nM; in assay [4], 42 nM; in assay [5], 56 nM.
